Measured values taken from patent US20110021786A1, “Pharmaceutical Solutions, Process of Preparation and Therapeutic Uses” (UCB PHARMA, S.A., priority 2008, published 2011).
Like-named read-outs stand apart in the source and are kept apart here.

Columns and labels:
[1] = target: T1, Levetiracetam Binding Site (LBS) (Rattus norvegicus, UniProt Q02563); experiment: LBS binding assay; parameters: species or system Sprague-Dawley rats
T1 construct: from tissue; host or cells: rat cerebral cortex crude membranes (male Sprague-Dawley)
T1 sequence (Q02563 whole entry): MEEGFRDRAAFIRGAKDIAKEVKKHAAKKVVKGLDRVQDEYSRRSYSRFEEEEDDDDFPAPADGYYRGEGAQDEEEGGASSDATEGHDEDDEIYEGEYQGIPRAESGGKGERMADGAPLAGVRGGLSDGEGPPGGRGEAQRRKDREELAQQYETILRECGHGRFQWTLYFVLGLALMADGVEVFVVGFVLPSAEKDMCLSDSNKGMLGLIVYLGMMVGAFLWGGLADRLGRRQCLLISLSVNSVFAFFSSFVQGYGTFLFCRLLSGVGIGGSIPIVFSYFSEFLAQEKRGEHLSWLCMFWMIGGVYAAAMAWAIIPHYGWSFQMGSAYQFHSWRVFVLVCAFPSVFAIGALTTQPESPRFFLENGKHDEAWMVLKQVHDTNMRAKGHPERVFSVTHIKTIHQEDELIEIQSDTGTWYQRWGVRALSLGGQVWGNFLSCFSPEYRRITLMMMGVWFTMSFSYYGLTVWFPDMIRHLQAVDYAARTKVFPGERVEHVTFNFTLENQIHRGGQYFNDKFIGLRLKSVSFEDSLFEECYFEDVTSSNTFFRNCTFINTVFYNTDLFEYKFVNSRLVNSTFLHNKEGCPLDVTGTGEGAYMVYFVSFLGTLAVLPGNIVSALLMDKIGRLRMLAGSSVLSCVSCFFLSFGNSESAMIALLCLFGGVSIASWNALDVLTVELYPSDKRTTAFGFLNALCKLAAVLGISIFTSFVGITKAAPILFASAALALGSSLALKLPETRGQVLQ
Description: [LBS stands for Levetiracetam Binding Site cf. M. Noyer et al., Eur. J. Pharmacol., 286 (1995) 137-146.]
The inhibition constant (Ki) of a compound is determined in competitive binding experiments by measuring the binding of a single concentration of a radioactive ligand at equilibrium with various concentrations of the unlabeled test substance. The concentration of the test substance inhibiting 50% of the specific binding of the radioligand is called the IC50. The equilibrium dissociation constant Ki is proportional to the IC50 and is calculated using the equation of Cheng and Prusoff (Cheng Y. et al., Biochem. Pharmacol. […], 22, 3099-3108).
The concentration range usually encompasses 6 log units with variable steps (0.3 to 0.5 log). Assays are performed in mono- or duplicate, each Ki determination is performed on two different samples of test substance. […]
Membranes (150-200 μg of protein/assay) are incubated at 4° C. for 120 min in 0.5 ml of a 50 mmol/l Tris-HCl buffer (pH 7.4) containing 2 mmol/l MgCl2, 1 to 2 10^−9 mol/l of [^3H]-2-[4-(3-azidophenyl)-2-oxo-1-pyrrolidinyl]butanamide and increasing concentrations of the test substance. […] The radioactivity trapped onto the filters is counted by liquid scintillation in a β-counter (Tri-Carb 1900 or TopCount 9206, Camberra Packard, Belgium, or any other equivalent counter). […]

[2] = system: audiogenic seizures in sound-susceptible mice; experiment: animal model of sound-susceptible mice; assay type: in vivo; conditions: Mus musculus, ip; intraperitoneally 60 minutes before induction of audiogenic seizures; dose producing 50% protection
Description: The objective of this test is to evaluate the anticonvulsant potency of a compound in sound-susceptible mice, a genetic animal model with reflex seizures. In this model of primary generalised epilepsy, seizures are evoked without electrical or chemical stimulation and the seizure types are, at least in part, similar in their clinical phenomenology to seizures occurring in man (Löscher W. 85 Schmidt D., Epilepsy Res. (1998), 2, 145-181; Buchhalter J. R., Epilepsia (1993), 34, S31-S41).
Male or female genetically sound-sensitive mice (14-28 g; N=10), derived from a DBA strain originally selected by Dr. Lehmann of the Laboratory of Acoustic Physiology (Paris) and bred in the UCB Pharma Sector husbandry unit since 1978, are used. The experimental design consisted of several groups, one group receiving the vehicle control and the other groups different doses of the test-compound. The compounds are administered intraperitoneally 60 minutes before the induction of audiogenic seizures.
For testing, the animals are placed in small cages, one mouse per cage, in a sound-attenuated chamber. […] During this interval, the mice are observed and the presence of the 3 phases of the seizure activity namely wild running, clonic and tonic convulsions, is recorded. The proportion of mice protected against wild running, clonic and tonic convulsions, respectively, is calculated. […]

[3] = stability test of seletracetam solutions at different pH; assay type: physicochemical
Description: Solutions at different pH are prepared (natural pH (not buffered) and pH 4.5, 5.0, 5.5, 6.0. The pH is controlled by means of an adequate buffer in order to obtain the wished pH (in the example: 50 mM acetate).
(§1) The solution is dispensed in 1.5 ml sealed glass vials.
(§2) A stability test is performed at 25° C., 40° C., 60° C. and 80° C.
The pH of the various solutions is measured at the beginning of the test and after 2 weeks, 4 weeks, and 10 weeks. The amounts of degradation products in the seletracetam solutions are dosed in the various solutions.

[4] = stability test of brivaracetam solutions at different pH; assay type: physicochemical
Description: Solutions at different pH are prepared (natural pH (not buffered) and pH 4.5, 5.0, 5.5, 6.0. The pH is controlled by means of an adequate buffer in order to obtain the wished pH (in the example by 50 mM citrate).
as §1, §2
The pH of the various solutions is measured at the beginning of the test and after 2 weeks, 4 weeks, and 10 weeks. The amounts of degradation products in the brivaracetam solutions are dosed in the various solutions.

[5] = bioavailability and safety of an intravenous formulation of brivaracetam; assay type: in vivo, healthy subjects
Description: A first step of the study done in a 3-way crossover in 24 healthy subjects (12 females, 12 males) compares the single-dose bioavailability of brivaracetam 10 mg oral tablets versus brivaracetam 10 mg administered as a 15 minute intravenous infusion, and as an IV bolus. In a second step, a single-dose escalation study (25 mg, 50 mg, 100 mg and 150 mg) is performed in 4 consecutive groups of 6 subjects (3 females, 3 males) to gain information and as a fast IV bolus, to assess the pharmacokinetics of brivaracetam at these dosing regimens and to explore dose proportionality.

[6] = solution having a pH range of 5.0 and 6.0
[7] = solution in the range of pH of 4.5 and 6.5
[8] = 10 mg IV infusion or IV bolus versus 10 mg oral tablet, fully contained within the bioequivalence range

Row | Compound | Ki ([1]; rat cerebral cortex membranes, [3H]-2-[4-(3-azidophenyl)-2-oxo-1-pyrrolidinyl]butanamide radioligand, read-out: pKi (converted)) [nM] | ED50 [2] [µmol/kg] | degradation rate [3, 6] | stability of solution [3, 7] | degradation rate [4, 6] | stability of solution [4, 7] | Ki [1] [nM] | 90% confidence intervals of geometric ratios of AUC [5, 8] | 90% confidence intervals of geometric ratios of Cmax [5, 8] | bioequivalence to single dose of brivaracetam 10 mg oral tablet ([5]; 10 mg via 15-minute IV infusion, healthy subjects) | bioequivalence to single dose of brivaracetam 10 mg oral tablet ([5]; 10 mg via IV bolus, healthy subjects) | pharmacokinetic parameters after IV infusion and IV bolus ([5]; IV infusion compared with IV bolus) | extent of exposure versus dose ([5]; dose range 25-150 mg) | safety and tolerability ([5]; from 25 mg to 150 mg as IV infusion or IV bolus, healthy subjects)
1 | CC[C@@H](C(N)=O)N1C[C@H](C=C(F)F)CC1=O [Seletracetam, (2S)-2-[(4S)-4-(2,2-difluorovinyl)-2-oxo-pyrrolidin-1-yl]butanamide] | ≤ 1000 | ≤ 100 | lowest | stable | – | – | – | – | – | – | – | – | – | –
2 | CCC[C@@H]1CC(=O)N([C@@H](CC)C(N)=O)C1 [Brivaracetam, (2S)-2-[(4R)-2-oxo-4-propyl-pyrrolidin-1-yl] butanamide] | – | ≤ 100 | – | – | lowest | stable | ≤ 1000 | 80-125% | 80-125% | bioequivalent | bioequivalent | similar | proportional to the administered dose | safe and well tolerated
